Our source for the IC50 values is patent US9511134B2, “Inducing immune responses to influenza virus using polypeptide and nucleic acid compositions” (priority 2006, dated 2016).

Where no end group is shown, it is not given here.

Assay in all cases: biochemical
What all share (type): binding

The target of one assay is T1, DRB1*0301 (Homo sapiens, UniProt P01903+P01911, A100K/A102G/A103R/A169T/F55Y/I96L/K41T/L162R/M171V/P40S/Q125H/Q178H/Q39Y/R42S/S66N/T106N/T262R/W38E/Y61H).
T1 construct: made in house; host or cells: EBV-transformed homozygous human B cell lines, transfected fibroblasts or single-allele 721.221 transfectants
T1 sequence (P01903 26-254, other chains not shown): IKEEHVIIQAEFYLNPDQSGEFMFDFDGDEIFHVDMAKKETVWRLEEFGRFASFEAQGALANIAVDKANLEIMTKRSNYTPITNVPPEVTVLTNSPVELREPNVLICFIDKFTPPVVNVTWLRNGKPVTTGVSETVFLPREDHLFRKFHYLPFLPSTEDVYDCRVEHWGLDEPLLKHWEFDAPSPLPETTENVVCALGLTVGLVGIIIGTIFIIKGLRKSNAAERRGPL

A further assay deals with T2, DRB1*0401 (Homo sapiens, UniProt P01903+P01911, A100K/A169T/F76Y/I96L/K127E/L162R/M171V/N62H/P40V/Q125Y/R42H/S133A/S149N/S66Y/V115G/V209L/W38E).
T2 construct: made in house; host or cells: EBV-transformed homozygous human B cell lines, transfected fibroblasts or single-allele 721.221 transfectants
To be noted: read-out: IC50 nM to purified HLA DRB1*0401.

Another assay concerns the target DRB1*0404 (Homo sapiens, UniProt P01903+P01911, A100R/A169T/F76Y/I96L/K127E/L162R/M171V/N62H/P40V/Q125Y/R42H/S133A/S149N/S66Y/V209L/W38E). To be noted: IC50 nM to purified HLA DRB1*0404.
The target of a further assay is T3, DRB1*0101 (Homo sapiens, UniProt P01903+P01911, A100R/D57E/F55L/F60I/F76Y/I96L/L162R/M171V/P40L/Q125E/R42F/V115G/Y59C).
T3 construct: made in house; host or cells: EBV-transformed homozygous human B cell lines, transfected fibroblasts or single-allele 721.221 transfectants
The settings on record: IC50 nM to purified HLA DRB1*0101.

The target in a further assay is DRB1*1302 (Homo sapiens, UniProt P01903+P01911, A100E/A169T/K41T/L162R/M171V/P40S/Q125H/Q178H/Q39Y/Q99D/R42S/S66N/T262R/V115G/W38E/Y61H). To be noted: read-out: IC50 nM to purified HLA DRB1*1302.
Chain of DRB1*1302 (P01903 26-254 limits assumed, other chains not shown): as the sequence (P01903 26-254, other chains not shown) above

Take PVHFRNQVKIRRRVD [Flu.PB2.135]: the IC50 against DRB1*0301 came out at 458 nM; on DRB1*0401, 1300 nM; against DRB1*0404 it was 5980 nM; on DRB1*0101, 2970 nM; at DRB1*1302 it was 359 nM.

Turning to `CC[C@H](C)[C@H](NC(=O)[C@H](CC(N)=O)NC(=O)[C@H](Cc1ccc(O)cc1)NC(=O)[C@H](CC(C)C)NC(=O)[C@H](CC(N)=O)NC(=O)[C@@H]1CCCN1C(=O)CNC(=O)CNC(=O)[C@H](CC(=O)O)NC(=O)[C@H](CO)NC(=O)[C@@H](NC(=O)[C@H](CC(C)C)NC(=O)[C@H](CC(C)C)NC(=O)CNC(=O)[C@H](C)N)C(C)C)C(=O)O` [Flu.PB1.590], the IC50 stood at 107 nM at DRB1*0301; 3000 nM at DRB1*0401; 3490 nM on DRB1*0404; 8120 nM against DRB1*0101; 105 nM at DRB1*1302.

On to `CC(C)C[C@H](NC(=O)[C@H](CO)NC(=O)[C@H](CCCNC(=N)N)NC(=O)[C@H](CC(C)C)NC(=O)[C@H](CCC(=O)O)NC(=O)[C@@H]1CCCN1C(=O)[C@H](CCC(=O)O)NC(=O)[C@H](CC(=O)O)NC(=O)[C@H](CO)NC(=O)[C@H](CC(=O)O)NC(=O)[C@H](Cc1ccc(O)cc1)NC(=O)[C@H](CCC(N)=O)NC(=O)[C@H](CCCCN)NC(=O)[C@@H](N)CC(C)C)C(=O)N[C@@H](CO)C(=O)O` [Flu.PA.393], for which the IC50 on DRB1*0301 stood at 88 nM; at DRB1*0401, 7260 nM; on DRB1*0404, 5800 nM; at DRB1*0101, 17700 nM.

As for `CSCC[C@H](NC(=O)[C@H](C)NC(=O)[C@H](CCCCN)NC(=O)[C@@H](N)CCC(N)=O)C(=O)N[C@@H](CCSC)C(=O)N[C@@H](CC(=O)O)C(=O)N[C@@H](CCC(N)=O)C(=O)N[C@H](C(=O)N[C@@H](CCCNC(=N)N)C(=O)N[C@@H](CCC(=O)O)C(=O)N[C@@H](CO)C(=O)N[C@@H](CCCNC(=N)N)C(=O)N[C@@H](CC(N)=O)C(=O)N1CCC[C@H]1C(=O)NCC(=O)O)C(C)C` [Flu.NP.238], the figures for the IC50 on DRB1*0301 and against DRB1*0404 were 450 nM and 1830 nM, respectively.

`CC[C@H](C)[C@H](NC(=O)[C@H](CCSC)NC(=O)[C@H](CC(N)=O)NC(=O)[C@@H](N)CC(N)=O)C(=O)N[C@@H](CC(N)=O)C(=O)N[C@@H](CC(N)=O)C(=O)N[C@@H](CC(=O)O)C(=O)N[C@@H](CC(C)C)C(=O)NCC(=O)N1CCC[C@H]1C(=O)N[C@@H](C)C(=O)N[C@H](C(=O)N[C@@H](C)C(=O)N[C@@H](CCC(N)=O)C(=O)N[C@@H](CCSC)C(=O)O)[C@@H](C)O` [Flu.PB1.535]: the IC50 against DRB1*0301 was 527 nM; on DRB1*0401, 798 nM; against DRB1*0404 it was 1830 nM; at DRB1*1302, 477 nM.

As to `CC[C@H](C)[C@H](NC(=O)[C@H](CCC(=O)O)NC(=O)[C@H](CC(=O)O)NC(=O)[C@H](CC(C)C)NC(=O)[C@H](CCC(=O)O)NC(=O)[C@@H](NC(=O)[C@H](Cc1c[nH]c2ccccc12)NC(=O)[C@@H](NC(=O)[C@@H](N)CO)[C@@H](C)CC)[C@@H](C)CC)C(=O)NCC(=O)N[C@@H](CCC(=O)O)C(=O)N[C@@H](CC(=O)O)C(=O)N[C@H](C(=O)N[C@@H](C)C(=O)N1CCC[C@H]1C(=O)O)C(C)C` [Flu.PA.423], the IC50 against DRB1*0301 was 59 nM; at DRB1*0401, 5400 nM; on DRB1*0404 it was 7610 nM; against DRB1*0101 it was 13400 nM.

As to `CC[C@H](C)[C@H](NC(=O)[C@H](CCCNC(=N)N)NC(=O)[C@H](CCCCN)NC(=O)[C@H](CC(=O)O)NC(=O)[C@H](C)NC(=O)[C@@H](NC(=O)[C@@H](NC(=O)[C@@H]1CCCN1C(=O)[C@H](Cc1ccc(O)cc1)NC(=O)[C@@H](N)CCCCN)[C@@H](C)CC)[C@@H](C)O)C(=O)N[C@@H](CCSC)C(=O)N[C@@H](CCC(=O)O)C(=O)N[C@@H](CCSC)C(=O)N[C@H](C(=O)N1CCC[C@H]1C(=O)O)[C@@H](C)CC` [Flu.PB2.57], the IC50 against DRB1*0301 was 48 nM; on DRB1*0401, 9390 nM; at DRB1*0404, 2290 nM; at DRB1*1302, 68 nM.
